Test results: patent US20080108645A1, “Dihydrotetrabenazines And Pharmaceutical Compositions Containing Them” (CAMBRIDGE LABORATORIES, (IRELAND), LTD., priority 2004, published 2008)

Legend:
Adrenergic α2A Receptor = biological target: T1, Adrenergic α2A Receptor (Homo sapiens, UniProt P08913); assay: Adrenergic α2A receptor radioligand binding; details: 10 μM; 1 nM [3H] MK-912
T1 construct: expressed in transfected cells; host or cells: insect Sf9 cells
T1 sequence (P08913 1-465): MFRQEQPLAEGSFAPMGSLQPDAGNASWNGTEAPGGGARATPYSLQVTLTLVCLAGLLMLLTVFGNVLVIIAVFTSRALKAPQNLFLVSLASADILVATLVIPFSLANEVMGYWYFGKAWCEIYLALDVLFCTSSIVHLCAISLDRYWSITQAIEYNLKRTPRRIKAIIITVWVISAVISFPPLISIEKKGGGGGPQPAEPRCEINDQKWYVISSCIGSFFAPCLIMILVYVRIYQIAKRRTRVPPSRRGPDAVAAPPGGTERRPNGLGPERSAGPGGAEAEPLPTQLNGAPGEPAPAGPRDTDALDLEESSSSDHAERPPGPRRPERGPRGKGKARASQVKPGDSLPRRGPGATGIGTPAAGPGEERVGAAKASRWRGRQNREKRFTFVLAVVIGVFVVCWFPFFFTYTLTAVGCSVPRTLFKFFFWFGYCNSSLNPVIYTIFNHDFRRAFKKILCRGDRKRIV
Description: (§1) (a) Adrenergic α2A Receptor: • Reference: S. Uhlen et al. J. Pharmacol. Exp. Ther., 271:1558-1565 (1994) • Source: Human recombinant insect Sf9 cells • Ligand: 1 nM [^3H] […] J. Pharmacol., 99:803-809, (1990) • Source: Wistar rat cerebral cortex • Ligand: 2 nM [3H]

in vitro = details: human, Caco-2, pH 7.4
Description: The assay relies on the ability of Caco-2 cells to differentiate into enterocytes when cultured on a microporous filter for a period of approximately 21 days. During the culture period, the Caco-2 cells undergo spontaneous morphological and biochemical changes, which produce a polarized monolayer with a well-defined brush border on the apical surface, as well as tight cellular junctions. Therefore, these cells may be used as an in vitro model for the analysis of drug permeability.
Absorption across the Caco-2 monolayer can be measured in two directions: apical-to-basolateral or basolateral-to-apical, by adding the compound to the apical or the basolateral chamber, respectively. At various time-points, samples are collected from the receiver-chamber for analysis for the rate of absorption as measured by the apparent permeability coefficient (Papp) across the monolayer.
The Papp value reflects a combination of the test article permeability through both transcellular (through cell membranes) and the paracellular (across the tight junctions between the cells) pathways. The relative contribution of these pathways depends upon the pKa, partition coefficient (log D), molecular radius, and charge of the test article at a given pH. Papp values can then be used to rank-order compounds for their permeability through Caco-2 monolayers.
Absorption was determined at pH 7.4 across cell monolayers in the apical-to-basolateral direction. Caco-2 cells used to estimate Papp values were grown for 26 days on Transwell inserts in 12-well plates. Monolayer integrity was verified before and after the absorption assay by the methods of transepithelial electrical resistance (Ohm-cm^2) and Lucifer Yellow.
On the day of the assay, the reference standards were diluted in Hank's balanced salt solution (HBSS), pH 7.4 to a final concentration of 50 μM. […] Dihydrotetrabenazine isomer samples were prepared at a concentration of 50 mM in DMSO. Each stock solution was further diluted in HBSS buffer (pH 7.4) to a final working concentration of 50 μM
The Caco-2 cell suspensions were prepared as follows. […] Once the cell density and viability were determined, Caco-2 cells were diluted in culture medium to a final working concentration of 2.0×10^5 cells/ml. The Caco-2 culture medium contained Dulbecco's Modified Eagle Medium, 10% fetal bovine serum, 100 μM non-essential amino acids, 100 U/ml penicillin and 100 μg/ml streptomycin.
Costar polycarbonate membranes (0.4 μm pore size) were pre-equilibrated with Caco-2 culture medium for 1 hour in a 37° C. water-jacketed incubator with 5% CO2. The content of the apical chamber was removed and replaced with 500 μl of Caco-2 cell suspension (200 000 cells/ml). Cells were further maintained in culture for 26 days in a 37° C. water-jacketed incubator with 5% CO2.
Prior to the assay, all monolayers were washed twice with HBSS and their transepithelial electrical resistance (TEER) was measured with a Millicell-ERS meter. TEER values obtained in the absence of cells were subtracted as background signal. Only monolayer with TEER values over 150 Ohm-cm^2 were used for the absorption assay experiment.
All absorption experiments were conducted in triplicate at pH 7.4. The rate of absorption of each reference standard and dihydrotetrabenazine test article was assessed in the apical-to-basolateral direction. Aliquots (100 μl) of each working solution (reference standards and test articles at 50 μM) were set aside at the beginning of the assay for the determination of the initial concentration (Co).
Absorption experiments were initiated by replacing the content of the donor chamber with 500 μl of Hanks Balanced Salt Solution containing test articles or reference compounds. Cells were returned to the CO2 incubator for the absorption assay. Samples of 100 μl were collected from the receiver and donor chambers after 1 hour and were used to determine the percentage of recovery.

Sigma σ1 Receptor = biological target: T2, Sigma σ1 Receptor (Homo sapiens, UniProt Q99720); assay: Sigma σ1 receptor radioligand binding; details: 10 μM; 8 nM [3H] Haloperidol
T2 construct: Source: Human jurkat cells; endogenous in cells; host or cells: Jurkat cells
Description: as §1

Monoamine Oxidase MAO-B = biological target: T3, Monoamine Oxidase MAO-B (Homo sapiens, UniProt P27338); assay: Monoamine Oxidase MAO-B inhibition; format: biochemical; details: for inhibition at 10 µM: read-out: Percentage Inhibition of Enzyme Activity, MAO-B
T3 sequence (P27338 1-520): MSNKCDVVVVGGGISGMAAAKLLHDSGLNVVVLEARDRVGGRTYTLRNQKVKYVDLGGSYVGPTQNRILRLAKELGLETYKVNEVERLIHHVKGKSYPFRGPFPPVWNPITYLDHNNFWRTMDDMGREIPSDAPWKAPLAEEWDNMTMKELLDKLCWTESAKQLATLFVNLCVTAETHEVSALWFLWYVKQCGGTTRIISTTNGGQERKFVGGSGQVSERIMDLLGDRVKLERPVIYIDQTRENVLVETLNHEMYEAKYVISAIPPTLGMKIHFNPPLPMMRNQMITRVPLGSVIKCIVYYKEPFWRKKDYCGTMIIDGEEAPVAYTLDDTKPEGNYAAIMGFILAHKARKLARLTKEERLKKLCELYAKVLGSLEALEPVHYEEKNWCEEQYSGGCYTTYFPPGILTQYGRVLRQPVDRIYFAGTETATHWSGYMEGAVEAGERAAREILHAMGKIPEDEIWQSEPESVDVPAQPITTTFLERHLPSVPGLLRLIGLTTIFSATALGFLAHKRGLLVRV
Description: Isomers B and C were tested for their ability to inhibit enzymes involved in the processing of monoamines in the CNS, namely Catechol O-Methyl Transferase (COMT), Monoamine Oxidase A and Monoamine Oxidase B. The assay methods used are described below and the results are set out in Table 7. (a) Catechol O-Methyl Transferase (COMT) Inhibition • Source: […] None • Incubation time: 60 minutes @ 37° C. • Incubation buffer: 100 mM potassium phosphate, 10 mM MgCl2, 3 mM DTT containing 12 units/ml adenosine deaminase, pH 7.4 • Quantitation method: […]

T2 sequence (Q99720 whole entry): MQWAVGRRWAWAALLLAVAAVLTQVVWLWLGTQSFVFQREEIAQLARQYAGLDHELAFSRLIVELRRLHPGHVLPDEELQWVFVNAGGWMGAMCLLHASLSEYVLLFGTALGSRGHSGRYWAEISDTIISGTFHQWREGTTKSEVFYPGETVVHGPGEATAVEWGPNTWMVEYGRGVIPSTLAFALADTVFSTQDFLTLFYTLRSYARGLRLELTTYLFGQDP

| SMILES | Percentage Inhibition of Specific Binding, α2A Receptor (Adrenergic α2A Receptor) | recovery at 1 h, 50 μM (in vitro) | Percentage Inhibition of Specific Binding, σ1 Receptor (Sigma σ1 Receptor) | inhibitory activity against monoamine oxidase isoform B (in words) (Monoamine Oxidase MAO-B) | inhibition at 10 µM (Monoamine Oxidase MAO-B) | Papp A→B at 1 h, 50 μM (in vitro) |
| --- | --- | --- | --- | --- | --- | --- |
| COc1cc2c(cc1OC)[C@H]1C[C@H](O)[C@@H](CC(C)C)CN1CC2 (single isomer, unassigned) [Isomer B, 3,11b-cis-dihydrotetrabenazine] | 12% | 90.1 ± 6.5% | 82% | no inhibitory activity | -5% |  |
| COc1cc2c(cc1OC)[C@H]1C[C@@H](O)[C@@H](CC(C)C)CN1CC2 (single isomer, unassigned) [Isomer C, 3,11b-cis-dihydrotetrabenazine] | 13% | 102 ± 12.4% | 59% | no inhibitory activity | -5% | 21.1 ×10⁻⁶ cm/s |
